Results from US10368545B2, “Substituted 2-thioimidazolylcarboxamides as pesticides” (BAYER CROPSCIENCE AKTIENGESELLSCHAFT, priority 2015, dated 2019).
Where “and” joins values, the source holds several entries; their conditions need not be identical. Equal values may be shown once. Read-outs that look alike come from different tables or passages of the source.

Key:
[1] = log P by HPLC on reversed-phase C18 columns (OECD Guideline 117); assay type: physicochemical
Experimental: The log P values were determined in accordance with OECD Guideline 117 (EC Directive 92/69/EEC) by HPLC (high-performance liquid chromatography) using reversed-phase (RP) columns (C18), by the following methods:
[a] The LC-MS determination in the acidic range was carried out at pH 2.7 with 0.1% aqueous formic acid and acetonitrile (contains 0.1% formic acid) as mobile phases; linear gradient from 10% acetonitrile to 95% acetonitrile.
[b] LC-MS determination in the neutral range was carried out at pH 7.8 with 0.001 molar aqueous ammonium hydrogencarbonate solution and acetonitrile as mobile phases; linear gradient from 10% acetonitrile to 95% acetonitrile.

[2] = tested on: green peach aphid (Myzus persicae); test: Myzus persicae spray test (Chinese cabbage leaf discs); assay type: in vivo; conditions: for pest or weed control at 500 g/ha: Myzus persicae, foliar, read-out: efficacy (aphids killed)
Experimental: Myzus persicae—Spray Test
Solvent: 78 parts by weight of acetone • • 1.5 parts by weight of dimethylformamide
(§1) Emulsifier: alkylaryl polyglycol ether
(§2) To produce a suitable active compound preparation, 1 part by weight of active compound is dissolved using the stated parts by weight of solvent and made up with water containing an emulsifier concentration of 1000 ppm until the desired concentration is attained. To produce further test concentrations, the preparation is diluted with emulsifier-containing water.
Discs of Chinese cabbage leaves (Brassica pekinensis) infested by all stages of the green peach aphid (Myzus persicae) are sprayed with an active compound preparation of the desired concentration.
After 5 or 6 days, the efficacy in % is determined. 100% means that all the aphids were killed; 0% means that no aphids were killed.

[3] = tested on: green peach aphid (Myzus persicae); test: Contrasting example: Myzus persicae spray test (MYZUPE); assay type: in vivo; conditions: for pest or weed control at 100 g/ha: Myzus persicae, 144 h, read-out: % efficacy
Experimental: Myzus persicae—Spray Test (MYZUPE)
Solvents: 78.0 parts by weight of acetone • • 1.5 parts by weight of dimethylformamide
as §1, §2
Discs of Chinese cabbage leaves (Brassica pekinensis), infested by all stages of the green peach aphid (Myzus persicae) are sprayed with an active compound preparation of the desired concentration.
After the desired period of time, the efficacy in % is determined. 100% means that all aphids were killed; 0% means that no aphids were killed.

[4] = reversed-phase C18 HPLC column, pH 2.7, acidic range, pH 2.7, 0.1% aqueous formic acid / acetonitrile, read-out: log P[a]
[5] = reversed-phase C18 HPLC column, pH 7.8, neutral range, pH 7.8, 0.001 molar aqueous ammonium hydrogencarbonate / acetonitrile, read-out: log P[n]
[6] = application rate 500 g/ha, after 5 or 6 days, Chinese cabbage leaf discs
[7] = reversed-phase C18 HPLC column, pH 2.7, method [a], read-out: logP[a]
[8] = reversed-phase C18 HPLC column, pH 7.8, method [b], read-out: logP[b]

| logP[a] ([1]; method [a]) | logP[b] ([1]; method [b]) | Compound | efficacy (aphids killed) [2, 6] [%] | % efficacy ([3]; MYZUPE, 100 g ai/ha, 6 dat) [%] | other results |
| --- | --- | --- | --- | --- | --- |
| – | – | Cc1cc(C)nc(Sc2ncc(C(=O)N(C)c3cccnc3)n2C)n1 [I-A-1] | – | – | log P[a] ([1]; acidic range, pH 2.7, 0.1% aqueous formic acid / acetonitrile): 1.26; log P[n] ([1]; neutral range, pH 7.8, 0.001 molar aqueous ammonium hydrogencarbonate / acetonitrile): 1.46; chromatographic logP [1, 4]: 1.31; chromatographic logP [1, 5]: 1.41; pest or weed control at 500 g/ha [2, 6]: 100%; pest or weed control at 100 g/ha ([3]; MYZUPE, 100 g ai/ha, 6 dat): 100% |
| – | – | CN(C(=O)c1cnc(SCC2CC2)n1C)c1cccnc1 [I-A-2] | – | – | chromatographic logP [1, 4]: 1.28; chromatographic logP [1, 5]: 1.81; pest or weed control at 500 g/ha [2, 6]: 100%; pest or weed control at 100 g/ha ([3]; MYZUPE, 100 g ai/ha, 6 dat): 90% |
| – | – | CN(C(=O)c1cnc(Sc2ncccn2)n1C)c1cccnc1 [I-A-3] | – | – | chromatographic logP [1, 4]: 0.69; chromatographic logP [1, 5]: 0.98; pest or weed control at 500 g/ha [2, 6]: 100%; pest or weed control at 100 g/ha ([3]; MYZUPE, 100 g ai/ha, 6 dat): 90% |
| 1.67 | 1.99 | CCCCSc1ncc(C(=O)N(C)c2cccnc2)n1C [I-A-5] | 90 | 100 | – |
| 0.45 | 0.67 | CN(C(=O)c1cnc(S(C)(=O)=O)n1C)c1cccnc1 [I-A-8] | 100 | 90 | – |
| 2.0 | 2.12 | CSc1cccc(Sc2ncc(C(=O)N(C)c3cccnc3)n2C)c1 [I-A-9] | – | 70 | efficacy (aphids killed) ([2]; application rate 20 g/ha, after 5 or 6 days, Chinese cabbage leaf discs): 90% |
| 1.41 | 1.54 | CN(C(=O)c1cnc(SCC(F)(F)F)n1C)c1cccnc1 [I-A-10] | 100 | 100 | – |
| 1.55 | 1.75 | CN(C(=O)c1cnc(Sc2ccccc2)n1C)c1cccnc1 [I-A-11] | 100 | 90 | – |
| 1.89 | 2.03 | Cc1ccc(Sc2ncc(C(=O)N(C)c3cccnc3)n2C)cc1 [I-A-12] | 90 | 70 | – |
| 1.61 | 1.87 | CCSCCSc1ncc(C(=O)N(C)c2cccnc2)n1C [I-A-14] | 90 | 90 | – |
| 0.76 | 1.14 | COCCSc1ncc(C(=O)N(C)c2cccnc2)n1C [I-A-18] | 100 | 90 | – |
| 1.23 | 1.53 | CC(C)Sc1ncc(C(=O)N(C)c2cccnc2)n1C [I-A-19] | 100 | 90 | – |
| 1.31 | 1.60 | CCCSc1ncc(C(=O)N(C)c2cccnc2)n1C [I-A-21] | 100 | 100 | – |
| 1.04 | 1.41 | CCOCCSc1ncc(C(=O)N(C)c2cccnc2)n1C [I-A-22] | 100 | 90 | – |
| 1.23 | 1.55 | CSCCSc1ncc(C(=O)N(C)c2cccnc2)n1C [I-A-26] | 100 | 70 | – |
| 1.08 and 1.11 | 1.40 | C=CCSc1ncc(C(=O)N(C)c2cccnc2)n1C [I-A-27] | 90 | 70 | – |
| 0.87 | 1.22 | C#CCSc1ncc(C(=O)N(C)c2cccnc2)n1C [I-A-30] | 90 | 90 | – |
| 0.95 | 1.31 | CCSc1ncc(C(=O)N(C)c2cccnc2)n1C [I-A-36] | 90 | 90 | – |
| – | – | CN(C(=O)c1cnc(SC(F)(F)F)n1C)c1cccnc1 [I-A-37] | – | – | chromatographic logP [1, 7]: 1.29; chromatographic logP [1, 8]: 1.45; pest or weed control at 500 g/ha [2]: 100%; pest or weed control at 100 g/ha [3]: 100% |
| – | – | CN(C(=O)c1cnc(SC(F)F)n1C)c1cccnc1 [I-A-38] | – | – | chromatographic logP ([1]; pH 2.7, method [a], read-out: logP[a]): 0.91; chromatographic logP ([1]; pH 7.8, method [b], read-out: logP[b]): 1.17; pest or weed control at 500 g/ha [2]: 90%; pest or weed control at 100 g/ha [3]: 70% |
| 0.68 | 0.88 | CCS(=O)(=O)c1ncc(C(=O)N(C)c2cccnc2)n1C [I-A-40] | 100 | 90 | – |

| logP[a] ([1]; method [a]) | logP[b] ([1]; method [b]) | Compound | efficacy (aphids killed) [2, 6] [%] | % efficacy ([3]; MYZUPE, 100 g ai/ha, 6 dat) [%] | other results |
| --- | --- | --- | --- | --- | --- |
| – | – | CNC(=O)C[S+]([O-])c1ncc(C(=O)N(C)c2cccnc2)n1C (stereo not drawn) [I-A-43] | – | – | chromatographic logP [1, 7]: 0.27; chromatographic logP [1, 8]: 0.22; pest or weed control at 100 g/ha ([3]; MYZUPE, 100 g ai/ha, 6 dat): 70% |
| – | – | CSc1ncc(C(=O)N(C)c2cccnc2)n1C [I-A-45] | – | – | chromatographic logP [1, 7]: 0.54; chromatographic logP [1, 8]: 1.04; pest or weed control at 500 g/ha [2, 6]: 100%; pest or weed control at 100 g/ha ([3]; MYZUPE, 100 g ai/ha, 6 dat): 90% |
| 2.09 | 2.17 | CN(C(=O)c1cnc(SCC(F)(F)C(F)(F)Cl)n1C)c1cccnc1 [I-A-46] | 100 | – | % efficacy ([3]; MYZUPE, 100 g ai/ha, 5 dat): 90% |
| 1.65 | 1.84 | CN(C(=O)c1cnc(SCCC(F)(F)F)n1C)c1cccnc1 [I-A-47] | 100 | – | % efficacy ([3]; MYZUPE, 100 g ai/ha, 5 dat): 90% |
| 1.11 | 1.40 | CN(C(=O)c1cnc(SCCCF)n1C)c1cccnc1 [I-A-48] | 100 | – | % efficacy ([3]; MYZUPE, 100 g ai/ha, 5 dat): 90% |
| 1.55 | 1.71 | CN(C(=O)c1cnc(SCC(F)(F)C(F)F)n1C)c1cccnc1 [I-A-49] | 100 | – | % efficacy ([3]; MYZUPE, 100 g ai/ha, 5 dat): 90% |
| 1.94 | 2.10 | CN(C(=O)c1cnc(SCCSCC(F)(F)F)n1C)c1cccnc1 [I-A-50] | 100 | – | % efficacy ([3]; MYZUPE, 100 g ai/ha, 5 dat): 100% |
| 1.47 | 1.73 | CN(C(=O)c1cnc(SC2CCSCC2)n1C)c1cccnc1 [I-A-51] | 100 | – | % efficacy ([3]; MYZUPE, 100 g ai/ha, 5 dat): 100% |
| 0.90 | 1.25 | CN(C(=O)c1cnc(SC2CCOCC2)n1C)c1cccnc1 [I-A-52] | 100 | – | % efficacy ([3]; MYZUPE, 100 g ai/ha, 5 dat): 100% |
| 2.68 | 2.76 | CC(C)CCSc1ncc(C(=O)N(C)c2cccnc2)n1C [I-A-53] | 100 | – | % efficacy ([3]; MYZUPE, 100 g ai/ha, 5 dat): 100% |
| 0.63 | 0.98 | CN(C(=O)c1cnc(SC2COC2)n1C)c1cccnc1 [I-A-54] | 100 | – | % efficacy ([3]; MYZUPE, 100 g ai/ha, 5 dat): 90% |
| 2.86 | 2.92 | CN(C(=O)c1cnc(Sc2cc(Cl)c(Cl)cc2Cl)n1C)c1cccnc1 [I-A-56] | – | 70 | – |
| 1.62 | 1.79 | COc1ccc(Sc2ncc(C(=O)N(C)c3cccnc3)n2C)cc1 [I-A-58] | 90 | 70 | – |
| 1.55 | 2.11 | CN(C)c1ccc(Sc2ncc(C(=O)N(C)c3cccnc3)n2C)cc1 [I-A-59] | 90 | 90 | – |
| 2.55 | 2.58 | CN(C(=O)c1cnc(Sc2cc(Cl)ccc2Cl)n1C)c1cccnc1 [I-A-60] | 90 | 70 | – |
| – | – | CN(C(=O)c1cnc(Sc2cccc(C(F)(F)F)c2)n1C)c1cccnc1 [I-A-61] | 90 | 90 | – |
| – | – | CN(C(=O)c1cnc(Sc2ccc(F)cc2)n1C)c1cccnc1 [I-A-62] | – | – | chromatographic logP [1, 7]: 1.66; chromatographic logP [1, 8]: 1.87; pest or weed control at 500 g/ha [2, 6]: 90%; pest or weed control at 100 g/ha ([3]; MYZUPE, 100 g ai/ha, 6 dat): 70% |
| 2.63 | 2.71 | CN(C(=O)c1cnc(Sc2ccc(Cl)c(C(F)(F)F)c2)n1C)c1cccnc1 [I-A-64] | 90 | 70 | – |
| 1.01 | 1.18 | CN(C(=O)c1cnc(Sc2ccccn2)n1C)c1cccnc1 [I-A-65] | 100 | 100 | – |
| – | – | CN(C(=O)c1cnc([S+]([O-])c2cc(Cl)cc(Cl)c2)n1C)c1cccnc1 (stereo not drawn) [I-A-77] | 90 | 70 | – |
| – | – | Cc1ccc(Sc2ncc(C(=O)N(C)c3cccnc3)n2C)nc1 [I-A-109] | 90 | 70 | – |
